For this test, the target named is T1, Human IP6K1 (Homo sapiens, UniProt Q92551).
T1 construct: GST (N, cleaved yes); made in house; host or cells: C43 E. coli, pGEX-6P-2
Description: IP6K1 high-throughput screen of the Sigma LOPAC (ADP-Glo Max, single point).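 Also: final compound concentration 10µM in 5% DMSO.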 It counts as biochemical. (ADP-Glo first removes unused ATP, then detects ADP through luciferase.)

[1] abbreviates: Sigma LOPAC single-point screen, ADP-Glo Max raw signal per well.
Setting [2] is: Sigma LOPAC single-point screen, Z-score from plate average and StDev.
Where [3] appears, read: LOPAC single-point screen, ADP-Glo Max raw signal per well.
[4] abbreviates: LOPAC single-point screen, Z-score against plate average and StDev.
Where [5] appears, read: LOPAC single-point screen, Z-score from raw signal with plate average and StDev.
Where [6] appears, read: LOPAC single-point screen, ADP-Glo Max luminescence raw signal per well.
[7] abbreviates: LOPAC single-point screen, Z-score relative to plate average and StDev.
[8] abbreviates: LOPAC single-point screen, Z-score from plate average and StDev.

Where a name gives a salt, the structure may show the parent alone.

T1 sequence (Q92551 whole entry): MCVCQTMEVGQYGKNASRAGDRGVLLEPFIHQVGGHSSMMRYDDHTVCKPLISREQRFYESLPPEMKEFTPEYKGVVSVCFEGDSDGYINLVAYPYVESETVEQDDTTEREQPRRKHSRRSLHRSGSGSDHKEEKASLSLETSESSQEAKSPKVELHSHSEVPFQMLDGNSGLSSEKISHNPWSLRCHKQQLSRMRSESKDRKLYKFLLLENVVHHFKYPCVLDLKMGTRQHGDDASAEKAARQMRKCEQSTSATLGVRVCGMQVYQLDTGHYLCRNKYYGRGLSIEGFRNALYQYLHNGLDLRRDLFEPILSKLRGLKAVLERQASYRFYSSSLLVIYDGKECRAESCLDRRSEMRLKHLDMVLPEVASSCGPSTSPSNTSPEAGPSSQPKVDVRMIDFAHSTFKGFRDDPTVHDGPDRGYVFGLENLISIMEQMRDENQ

Regarding `Cl.Cl.Oc1ccc2c3c1O[C@H]1c4[nH]c5c(c4C[C@@]4(O)[C@@H](C2)N(CC2CC2)CC[C@]314)C[C@@]1(O)[C@H]2Cc3ccc(O)c4c3[C@@]1(CCN2CC1CC1)[C@H]5O4` [nor-Binaltorphimine dihydrochloride], the “Raw Signal” value under setting [1] is recorded as 56488. Under setting [2], this compound yielded a Z-score of 0.3519.

In the case of `CCCn1c(C)c(C(=O)c2cccc3ccccc23)c2ccccc21` [JWH-015], under setting [3], the “Raw Signal” value was determined as 54462. The compound also showed a Z-score under setting [4] of 0.01151.

Turning to `COc1ccccc1N1CCN(CCCNc2c(C)c(=O)n(C)c(=O)n2C)CC1` [Urapidil, 5-Methyl-], the “Raw Signal” value under setting [1] turned out to be 62058. This compound also returned a Z-score under setting [2] of 1.172.

For `CC(C)NCC(O)COc1ccc(CCOCC2CC2)cc1` (stereo not drawn) [Betaxolol hydrochloride], the “Raw Signal” value under setting [3] is listed as 59138. This compound also displayed a Z-score under setting [4] of 0.2157.

Turning to `O=c1onc2n1-c1cc(Br)ccc1OC2` [NS 2028], under setting [3], the “Raw Signal” value was 54790. Also, under setting [4], the Z-score was found to be 0.06662.

`Nc1ccc(S(=O)(=O)Nc2ccnn2-c2ccccc2)cc1` [Sulfaphenazole]: the “Raw Signal” value under setting [3] was 54328. The same compound returned a Z-score under setting [5] of -0.3295.

For `Nc1nc2[nH]c(=O)cnc2c(=O)[nH]1` [Isoxanthopterin], the “Raw Signal” value under setting [1] is recorded as 59100. Further, the Z-score under setting [2] is recorded as 0.7908.

Regarding `Fc1ccc(C(c2ccc(F)cc2)N2CCN(C/C=C/c3ccccc3)CC2)cc1` [Flunarizine dihydrochloride], the “Raw Signal” value under setting [1] is 58645. Moreover, the Z-score under setting [2] turned out to be 0.7063.

`CC(C)NCC(O)c1ccc(O)c(O)c1.Cl` (single isomer, unassigned; (-)) [(-)-Isoproterenol hydrochloride]: the “Raw Signal” value under setting [6] was found to be 50939. This compound returned a Z-score under setting [7] of -0.5804.

Turning to `CCCCC/C=C\C/C=C\C/C=C\C/C=C\CCCC(=O)NCC(=O)O` [N-arachidonylglycine], the “Raw Signal” value under setting [3] turned out to be 55672. Under setting [5], this compound returned a Z-score of -0.3947.

Take `CN1C(C(=O)Nc2ccccn2)=C(O)c2ccccc2S1(=O)=O` [Piroxicam]: under setting [1], the “Raw Signal” value was 59564. The same compound came in with a Z-score under setting [2] of 0.8688.

As to `CC(C)C1C2CCC(C2)C1N.Cl` (racemic) [AGN 192403 hydrochloride], the “Raw Signal” value under setting [6] stood at 53820. Moreover, the Z-score under setting [7] is listed as -0.7209.

Consider `CC1=C(C)C(=O)C(CCCCC#CCCCC#CCO)=C(C)C1=O` [AA-861], for which, under setting [6], the “Raw Signal” value is reported as 50345. Moreover, under setting [7], the Z-score is on record as -1.333.

With `O=C[C@H](Cl)[C@@H](O)[C@H](O)[C@H](O)CO` [2-Chloro-2-deoxy-D-glucose], the “Raw Signal” value under setting [1] was 57775. The compound also showed a Z-score under setting [2] of 0.5297.

As to `COc1ccc(C2CNC(=O)C2)cc1OC1CCCC1` (stereo not drawn) [Rolipram], the “Raw Signal” value under setting [3] is reported as 57545. This compound also displayed a Z-score under setting [4] of 0.2955.

As for `C[C@]12C[C@H](O)[C@H]3[C@@H](CCC4=CC(=O)CC[C@@]43C)[C@@H]1CC[C@@H]2C(=O)CO` [Corticosterone], the “Raw Signal” value under setting [3] was determined as 55741. Under setting [5], this compound returned a Z-score of -0.3826.

Regarding `CCCN1CCOC2c3cc(O)ccc3OCC21.Cl` (racemic) [(±)-PD 128,907 hydrochloride], the “Raw Signal” value under setting [6] came to 53572. This compound had a Z-score under setting [7] of -0.4763.

With `COc1cc2nc(N3CCN(C(=O)c4ccco4)CC3)nc(N)c2cc1OC` [Prazosin hydrochloride], the “Raw Signal” value under setting [3] worked out at 56945. The compound further had a Z-score under setting [4] of 0.179.

Turning to `CSc1ccc2c(c1)C(N1CCN(C)CC1)Cc1ccccc1S2` (stereo not drawn) [Methiothepin mesylate], under setting [1], the “Raw Signal” value came out at 58558. The compound further gave a Z-score under setting [2] of 0.6997.

With `C1CCc2nnnn2CC1` [Pentylenetetrazole], the “Raw Signal” value under setting [1] was 57450. The Z-score under setting [2] came to 0.5136.

As to `O=C(Nc1cc(C(=O)Nc2ccc(S(=O)(=O)[O-])cc2S(=O)(=O)[O-])cc(C(=O)Nc2ccc(S(=O)(=O)[O-])cc2S(=O)(=O)[O-])c1)Nc1cc(C(=O)Nc2ccc(S(=O)(=O)[O-])cc2S(=O)(=O)[O-])cc(C(=O)Nc2ccc(S(=O)(=O)[O-])cc2S(=O)(=O)[O-])c1.[Na+].[Na+].[Na+].[Na+].[Na+].[Na+].[Na+].[Na+]` [NF449 octasodium salt], the “Raw Signal” value under setting [6] is listed as 9787. Under setting [7], this compound gave a Z-score of -7.495.

As to `O=C(O)c1cc(O)c2ccc(Cl)cc2n1` [7-Chlorokynurenic acid], the “Raw Signal” value under setting [3] came out at 53866. This compound had a Z-score under setting [5] of -0.2642.

Take `CC(C)(Sc1ccc(CCN(CCCCC2CCCCC2)C(=O)NC2CCCCC2)cc1)C(=O)O` [GW7647]: under setting [6], the “Raw Signal” value worked out at 52814. The Z-score under setting [7] is on record as -0.4779.

Turning to `Cn1cnc2c(NCc3ccccc3)nc(NCCO)nc21` [Olomoucine], under setting [1], the “Raw Signal” value was found to be 60982. Under setting [2], this compound gave a Z-score of 1.107.

In the case of `NCCc1c[nH]c2ccccc12` [Tryptamine hydrochloride], the “Raw Signal” value under setting [1] was 60596. Besides, under setting [2], the Z-score amounted to 0.4725.

Turning to `CN1CCc2cccc(Cl)c2CC1` [SKF 86466], the “Raw Signal” value under setting [3] was determined as 54503. Moreover, under setting [5], the Z-score is -0.2955.

Turning to `CN1[C@@H]2CC[C@H]1C[C@@H](OC(=O)[C@H](CO)c1ccccc1)C2` [L-Hyoscyamine], under setting [6], the “Raw Signal” value is listed as 63094. The Z-score under setting [8] is 1.61.

On to `Cc1ccc(Cl)c(Nc2ccccc2C(=O)O)c1Cl` [Meclofenamic acid sodium], for which the “Raw Signal” value under setting [1] was determined as 59966. The Z-score under setting [2] is listed as 0.9363.

For `COc1cc2nc(N3CCN(C(=O)OCc4ccccc4)[C@H](C(=O)NC(C)(C)C)C3)nc(N)c2cc1OC` [L-765,314], the Z-score under setting [5] is -0.2706.

As for `CCCCC/C=C\C[C@@H](O)/C=C/c1cccc(C[C@@H](O)CCCCO)n1` [U-75302], the “Raw Signal” value under setting [6] is on record as 63793. Under setting [8], this compound gave a Z-score of 1.509.

Consider `NC/C=C/C(=O)O` [(E)-4-amino-2-butenoic acid], for which the “Raw Signal” value under setting [6] is reported as 52183. The same compound registered a Z-score under setting [7] of -1.009.

As to `Cl.Nc1ccn([C@@H]2O[C@H](CO)[C@@H](O)[C@@H]2O)c(=O)n1`, under setting [6], the “Raw Signal” value is on record as 65878. The same compound came in with a Z-score under setting [8] of 1.403.

With `C=CCN1CC[C@@]2(C)c3cc(O)ccc3C[C@@H]1[C@@H]2C.Cl` (racemic) [(±)-N-Allylnormetazocine hydrochloride], the “Raw Signal” value under setting [6] came to 52910. In addition, under setting [7], the Z-score is given as -0.8812.

Turning to `CCCCOC(=O)NS(=O)(=O)c1sc(CC(C)C)cc1-c1ccc(Cn2c(CC)nc3c(C)cc(C)nc32)cc1` [L-162,313], the “Raw Signal” value under setting [3] worked out at 54291. The Z-score under setting [4] is listed as -0.01722.

Take `C=C(C)[C@H]1Cc2c(ccc3c2O[C@@H]2COc4cc(OC)c(OC)cc4[C@@H]2C3=O)O1` [Rotenone]: under setting [1], the “Raw Signal” value worked out at 59768. Besides, under setting [2], the Z-score amounted to 0.7274.

`OCCN1CCN(CCCN2c3ccccc3Sc3ccc(Cl)cc32)CC1` [Perphenazine]: under setting [1], the “Raw Signal” value is given as 57078. The Z-score under setting [2] was determined as 0.4511.

Consider `CNCC[C@@H](Oc1ccc(C(F)(F)F)cc1)c1ccccc1.Cl` [R-(-)-Fluoxetine hydrochloride], for which, under setting [6], the “Raw Signal” value stood at 63921. For the same compound, the Z-score under setting [8] is given as 1.778.

With `CC(C)C(=O)c1c(C(C)C)nn2ccccc12` [Ibudilast], under setting [3], the “Raw Signal” value came out at 53701. The Z-score under setting [5] is on record as -0.2977.

For `COc1cccc(NC(=O)/C=C/c2ccc(Cl)cc2)c1` [SB-366791], the “Raw Signal” value under setting [6] is reported as 52546. Under setting [7], this compound showed a Z-score of -0.6757.

With `Oc1ccccc1O` [Pyrocatechol], the “Raw Signal” value under setting [6] is given as 49319. The Z-score under setting [7] is -1.514.

Consider `C=CCc1ccccc1OCC(O)CNC(C)C` (stereo not drawn) [Alprenolol hydrochloride], for which, under setting [1], the “Raw Signal” value was found to be 60855. Moreover, the Z-score under setting [2] is 0.5181.

Take `C[C@@H]1O[C@@H]1P(=O)(O)O` [Phosphomycin disodium]: under setting [6], the “Raw Signal” value is 62776. Under setting [8], this compound had a Z-score of 1.408.

As for `CCn1cc(C(=O)O)c(=O)c2ccc(Cc3ccccc3)nc21` [Amfonelic acid], the Z-score under setting [5] is -0.107.

`COC(=O)[C@H]1[C@H]2C[C@H]3c4[nH]c5ccccc5c4CCN3C[C@H]2CC[C@@H]1O` [Rauwolscine hydrochloride]: under setting [3], the “Raw Signal” value is 54997. The compound further came in with a Z-score under setting [5] of -0.1995.

With `Cl.NCCCCCCNS(=O)(=O)c1cccc2c(Cl)cccc12` [W-7 hydrochloride], under setting [3], the “Raw Signal” value was found to be 57979. Besides, the Z-score under setting [4] came out at 0.01161.

For the compound `C=C1C(=O)O[C@H]2[C@H]1CC/C(C)=C/CC[C@@]1(C)O[C@@H]21` [Parthenolide], the “Raw Signal” value under setting [1] worked out at 56472. The same compound displayed a Z-score under setting [2] of 0.3492.

For `O=C(O)CNC(=O)C(CS)Cc1ccccc1` (racemic) [DL-Thiorphan], the “Raw Signal” value under setting [3] is 55327. Also, the Z-score under setting [5] was -0.1354.

Consider `Oc1ccc2c3c1O[C@H]1c4[nH]c5ccccc5c4C[C@@]4(O)[C@@H](C2)N(CC2CC2)CC[C@]314` [Naltrindole hydrochloride], for which the “Raw Signal” value under setting [3] is recorded as 53741. The Z-score under setting [5] is -0.1096.

Take `NC(=O)c1ncn([C@@H]2O[C@H](CO)[C@@H](O)[C@H]2O)c1O` [Mizoribine]: the “Raw Signal” value under setting [6] worked out at 51474. This compound came in with a Z-score under setting [7] of -0.4906.

As to `CCC(C)N(C)C(=O)c1cc2ccccc2c(-c2ccccc2Cl)n1` (stereo not drawn) [PK 11195], under setting [6], the “Raw Signal” value worked out at 54307. The Z-score under setting [7] was -0.6351.

Consider `Cl.Cl.Fc1ccc(C(OCCN2CCN(CCCc3ccccc3)CC2)c2ccc(F)cc2)cc1` [GBR-12909 dihydrochloride], for which, under setting [1], the “Raw Signal” value is 60047. Further, under setting [2], the Z-score was 0.9911.

Regarding `N#CC(C#N)=C(N)/C(C#N)=C/c1cc(O)c(O)c(O)c1` [Tyrphostin 51], the “Raw Signal” value under setting [6] turned out to be 44032. In addition, under setting [7], the Z-score is listed as -2.33.

Values taken from PMC5706701, “Development of a homogenous high-throughput assay for inositol hexakisphosphate kinase 1 activity” (PLoS ONE, 2017).
